Patent US8192717B2, “Composition for diagnosing amyloid-related diseases” (Nagasaki University, priority 2004, dated 2012)

Legend:
Aβ(1-40) aggregates [1] = biological target: T1, Aβ(1-40) aggregates (Homo sapiens, UniProt P05067); test: In vitro binding of [125I]-labelled compounds to Aβ aggregates (filtration, radioactivity on filter); details: [125I]-labelled compound; radioactivity remaining on filter in presence vs absence of Aβ aggregates
T1 construct: The amyloid β protein (Human, 1-40) [HCl form]; purchased Peptide Institute, Inc
Experimental: (§1) Aβ aggregates was dissolved in a buffer (pH 7.4) that contained 10 mM sodium phosphate and 1 mM EDTA, resulting in a concentration of 0.5 mg/ml. Thereafter, the obtained solution was incubated at 37° C. for 36 to 42 hours. A binding experiment was carried out using 12×75 mm borosilicate glass tubes. […] The obtained mixture was left at room temperature for 3 hours. Non-specific bond was calculated using nonradioactive compound 11 (1 μM). […] The radioactivity of a substance remaining in the filter used in filtration was measured with a γ counter. With regard to [^125I] compound 11, the Kd value thereof was calculated by the Scatchard analysis. In addition, using [^125I] compound 11 as a radioactive ligand, an inhibition experiment was carried out by the following method using the Aβ(1-40) aggregates and the Aβ(1-42) aggregates. […] The obtained mixture was left at room temperature for 3 hours. Non-specific bond was calculated using nonradioactive compound 11 (1 μM). The 50% inhibitory concentration was calculated using GraphPad Prism (GraphPad Software), and the inhibition constant (Ki value) was calculated according to the formula of Cheng-Prusoff, Ki=IC50/(1+[L]/Kd). In this formula, [L] represents the concentration of [^125I] compound 11, and Kd represents the dissociation constant of [^125I] compound 11 to the Aβ(1-40) aggregates and the Aβ(1-42) aggregates.

Aβ(1-40) aggregates [2] = biological target: T1, Aβ(1-40) aggregates; test: Inhibition experiment using [125I] compound 11 as radioactive ligand, Aβ(1-40) aggregates; format: binding; details: radioligand [125I] compound 11; Cheng-Prusoff; read-out: Inhibition constant (Ki, nM) Aβ(1-40)
Experimental: as §1

[3] = Radioactivity distribution in mouse body after intravenous administration of radioiodine labeled forms; details: normal mice, intravenous, [125I]-labelled form
Experimental: Thereafter, 100 μl (0.5 to 1 μCi) of each labeled form was intravenously administered to each group consisting of three to five 5-week-old ddY male mice (25 to 30 g). 2, 10, 30, and 60 minutes after the intravenous administration, such mice were decapitated, and blood was collected. Thereafter, organs were excised, and the weight and radioactivity thereof were then measured.

Aβ(1-42) aggregates [4] = biological target: T2, Aβ(1-42) aggregates (Homo sapiens, UniProt P05067); test: Inhibition experiment using [125I] compound 11 as radioactive ligand, Aβ(1-42) aggregates; format: binding; details: radioligand [125I] compound 11; Cheng-Prusoff; read-out: Inhibition constant (Ki, nM) Aβ(1-42)
T2 construct: the amyloid β protein (Human, 1-42) [TFA form]; purchased Peptide Institute, Inc
Experimental: as §1

[5] = test system: senile plaque amyloid, cerebrovascular amyloid and neurofibrillary degeneration in brain tissues of patient with Alzheimer's disease; test: Binding experiment using brain tissues of patient with Alzheimer's disease (fluorescence microscopy of sections); set-up: species or system human; details: 100 nM, room temperature, 10 minutes; temporal lobe sections
Experimental: Tissues at the temporal lobe site of the brain of a patient with Alzheimer's disease were fixed with formalin, and were then embedded in paraffin. A section with a thickness of 5 μm was prepared from the paraffin block, and the paraffin was then removed by an ordinary treatment with xylene and ethanol (Lippa, C. F., Nee, L. E., Mori, H & George-Hyslop, P. (1998) The Lancet 352:1117-1118). As the final stage, neutralization was carried out with a phosphate buffer. Thereafter, compounds 10, 11, 19, and 20 were reacted in a concentration of 100 nM at room temperature for 10 minutes. Thereafter, the reaction product was washed with a phosphate buffer three times, and then with 50% ethanol three time, so as to terminate the reaction. Thereafter, the resultant was dehydrated by treatments with alcohol and xylene, followed by embedding with Entellan(R) new. The bond of the above compound was confirmed by image observation with a CCD camera (M-3204C) included with a fluorescence microscope (Olympus BX50).

Aβ(1-40) aggregates [6] = biological target: T1, Aβ(1-40) aggregates; test: Saturation experiment of [125I] compound 11 with Scatchard analysis, Aβ(1-40) aggregates; format: binding; details: read-out: dissociation equilibrium constant (Kd value)
Experimental: as §1

Aβ(1-42) aggregates [7] = biological target: T2, Aβ(1-42) aggregates; test: Saturation experiment of [125I] compound 11 with Scatchard analysis, Aβ(1-42) aggregates; format: binding; details: read-out: dissociation equilibrium constant (Kd value)
Experimental: as §1

T1 sequence (P05067 672-711 limits assumed): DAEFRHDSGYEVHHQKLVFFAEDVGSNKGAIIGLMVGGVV
T2 sequence (P05067 672-713 limits assumed): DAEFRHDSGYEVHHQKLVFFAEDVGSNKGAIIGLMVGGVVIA

Compound	bindability to the Aβ aggregates (Aβ(1-40) aggregates [1])	Ki (Aβ(1-40) aggregates [2]) [nM]	rate of disappearance from the brain (rank among flavone derivatives) [3]	Ki (Aβ(1-42) aggregates [4]) [nM]	recognition of and binding to amyloid plaque, senile plaque having a neurodegenerative projection, cerebrovascular amyloid and neurofibrillary degeneration [5]	Kd (Aβ(1-40) aggregates [6]) [µM]	Kd (Aβ(1-42) aggregates [7]) [µM]	bindability to senile plaque having a neurodegenerative projection and to neurofibrillary degeneration [5]	binding to cerebrovascular amyloid [5]	binding to senile plaque [5]
CNc1ccc(-c2cc(=O)c3cc(I)ccc3o2)cc1 [compound 10, 6-iodo-4′-methylaminoflavone]	high bindability	22.6 ± 3.4	almost the same as that of [^125I] compound 11	30 ± 3.4	recognize amyloid plaque, senile plaque having a neurodegenerative projection, cerebrovascular amyloid and neurofibrillary degeneration, and bind thereto	–	–	–	–	–
COc1ccc(-c2cc(=O)c3cc(I)ccc3o2)cc1 [compound 19, 6-iodo-4′-methoxyflavone]	high bindability	29 ± 3.2	fastest	38.3 ± 8.1	recognize amyloid plaque, senile plaque having a neurodegenerative projection, cerebrovascular amyloid and neurofibrillary degeneration, and bind thereto	–	–	–	–	–
CN(C)c1ccc(-c2cc(=O)c3cc(I)ccc3o2)cc1 [compound 11, 6-iodo-4′-dimethylaminoflavone]	high bindability	13.2 ± 0.2	–	15.6 ± 2.4	–	0.0123 ± 0.0023	0.0176 ± 0.0057	has bindability	specifically binds to cerebrovascular amyloid	specifically binds to senile plaque
